Reference: the supplement of paper PMC10307832

Tests used:
Assay in all cases: relative viability (nuclei count vs DMSO), 5 days (fraction); higher = more cells survive
GSK126 + AZD7762 = compound: CC[C@H](C)N1C=C(C2=C(C=C(C=C21)C3=CN=C(C=C3)N4CCNCC4)C(=O)NCC5=C(C=C(NC5=O)C)C)C [GSK126] + NC(=O)Nc1cc(-c2cccc(F)c2)sc1C(=O)N[C@H]1CCCNC1 [AZD7762] (partner 0.2 µM)
How it was run: (§1)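 Each reported value is a median over duplicate plates. It expresses relative viability: treated-well nuclei count divided by vehicle-well nuclei count. Lung cancer cell lines in 1536-well plates were dosed by pin tool a day after seeding, alone with one drug or with a fixed anchor-drug dose plus five library-drug doses (not always all listed) in √10 steps, and nuclei were counted after 5 days.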

Carboplatin + Olaparib = compound: C1CC(C1)(C(=O)O)C(=O)O.[NH2-].[NH2-].[Pt+2] [Carboplatin] + O=C(c1cc(Cc2n[nH]c(=O)c3ccccc23)ccc1F)N1CCN(C(=O)C2CC2)CC1 [Olaparib] (partner 8 µM)
How it was run: as §1

GSK126 + Dasatinib = compound: CC[C@H](C)N1C=C(C2=C(C=C(C=C21)C3=CN=C(C=C3)N4CCNCC4)C(=O)NCC5=C(C=C(NC5=O)C)C)C [GSK126] + Cc1nc(Nc2ncc(C(=O)Nc3c(C)cccc3Cl)s2)cc(N2CCN(CCO)CC2)n1 [Dasatinib] (partner 0.075 µM)
How it was run: as §1

GSK126 + Pictilisib = compound: CC[C@H](C)N1C=C(C2=C(C=C(C=C21)C3=CN=C(C=C3)N4CCNCC4)C(=O)NCC5=C(C=C(NC5=O)C)C)C [GSK126] + CS(=O)(=O)N1CCN(Cc2cc3nc(-c4cccc5[nH]ncc45)nc(N4CCOCC4)c3s2)CC1 [Pictilisib] (partner 1 µM)
How it was run: as §1

Cell Line | relative viability (GSK126 + AZD7762; first compound 0.08 µM) | relative viability (GSK126 + AZD7762; first compound 0.253 µM) | relative viability (GSK126 + AZD7762; first compound 0.8 µM) | relative viability (GSK126 + AZD7762; first compound 2.53 µM) | relative viability (GSK126 + AZD7762; first compound 8 µM) | relative viability (Carboplatin + Olaparib; first compound 0.08 µM) | relative viability (Carboplatin + Olaparib; first compound 0.253 µM) | relative viability (Carboplatin + Olaparib; first compound 0.8 µM) | relative viability (Carboplatin + Olaparib; first compound 2.53 µM) | relative viability (Carboplatin + Olaparib; first compound 8 µM) | relative viability (GSK126 + Dasatinib; first compound 0.08 µM) | relative viability (GSK126 + Dasatinib; first compound 0.253 µM) | relative viability (GSK126 + Dasatinib; first compound 0.8 µM) | relative viability (GSK126 + Dasatinib; first compound 2.53 µM) | relative viability (GSK126 + Dasatinib; first compound 8 µM) | relative viability (GSK126 + Pictilisib; first compound 0.08 µM) | relative viability (GSK126 + Pictilisib; first compound 0.253 µM) | relative viability (GSK126 + Pictilisib; first compound 0.8 µM) | relative viability (GSK126 + Pictilisib; first compound 2.53 µM) | relative viability (GSK126 + Pictilisib; first compound 8 µM)
HCC-78 | 0.675 | 0.652 | 0.604 | 0.832 | 0.736 | 0.888 | 0.851 | 0.574 | 0.684 | 0.726 | 0.423 | 0.51 | 0.357 | 0.355 | 0.367 | 0.25 | 0.201 | 0.178 | 0.217 | 0.237
HCC-366 | 0.33 | 0.251 | 0.201 | 0.293 | 0.177 | 0.387 | 0.363 | 0.364 | 0.288 | 0.208 | 0.77 | 0.654 | 0.586 | 0.696 | 0.591 | 0.132 | 0.138 | 0.13 | 0.0968 | 0.126
HCC-827 | 0.214 | 0.191 | 0.24 | 0.232 | 0.196 | 0.61 | 0.651 | 0.639 | 0.593 | 0.564 | 0.333 | 0.275 | 0.401 | 0.396 | 0.287 | 1.19 | 1.25 | 1.01 | 0.953 | 1.12
HOP-62 | 0.67 | 0.757 | 0.819 | 0.528 | 0.363 | 0.391 | 0.398 | 0.444 | 0.506 | 0.255 | 0.829 | 0.583 | 0.636 | 0.566 | 0.595 | 0.894 | 0.758 | 0.64 | 0.86 | 0.785
IA-LM |  |  |  |  |  | 0.836 | 0.74 | 0.715 | 0.905 | 0.57 |  |  |  |  |  | 0.359 | 0.286 | 0.301 | 0.443 | 0.36
NCI-H520 |  |  |  |  |  | 0.408 | 0.253 | 0.328 | 0.313 | 0.287 | 0.184 | 0.172 | 0.185 | 0.19 | 0.238 | 0.265 | 0.261 | 0.271 | 0.256 | 0.281
NCI-H522 | 0.849 | 0.888 | 0.904 | 0.93 | 0.964 | 0.586 | 0.663 | 0.618 | 0.679 | 0.607 | 0.871 | 0.699 | 0.794 | 1.02 | 0.775 |  |  |  |  | 
NCI-H661 |  |  |  |  |  | 0.73 | 0.794 | 0.675 | 0.737 | 0.729 | 1.11 | 0.745 | 0.755 | 0.664 | 0.653 | 0.43 | 0.433 | 0.401 | 0.565 | 0.345
NCI-H1299 |  |  |  |  |  | 0.967 | 0.969 | 0.96 | 0.947 | 0.826 |  |  |  |  |  | 0.877 | 0.693 | 0.74 | 1.02 | 0.576
NCI-H1563 |  |  |  |  |  |  |  |  |  |  | 0.438 | 0.455 | 0.461 | 0.459 | 0.441 | 0.616 | 0.715 | 0.695 | 0.648 | 0.551
NCI-H1623 |  |  |  |  |  |  |  |  |  |  | 0.529 | 0.567 | 0.602 | 0.482 | 0.5 |  |  |  |  | 
NCI-H1648 | 0.568 | 0.756 | 0.73 | 0.718 | 0.522 | 1.39 | 1.29 | 1.21 | 0.765 | 0.897 |  |  |  |  |  |  |  |  |  | 
NCI-H1650 |  |  |  |  |  | 0.85 | 0.815 | 0.752 | 0.492 | 0.471 | 0.349 | 0.333 | 0.284 | 0.281 | 0.338 | 0.568 | 0.596 | 0.566 | 0.794 | 0.556
NCI-H1703 | 0.115 | 0.115 | 0.133 | 0.118 | 0.137 | 0.646 | 0.329 | 0.453 | 0.608 | 0.325 |  |  |  |  |  | 0.247 | 0.263 | 0.235 | 0.262 | 0.231
NCI-H2009 |  |  |  |  |  | 0.65 | 0.653 | 0.658 | 0.594 | 0.437 | 0.331 | 0.261 | 0.306 | 0.231 | 0.296 | 1.14 | 0.69 | 0.827 | 0.908 | 0.908
NCI-H2023 |  |  |  |  |  | 0.473 | 0.445 | 0.415 | 0.231 | 0.135 | 0.641 | 0.566 | 0.584 | 0.627 | 0.661 | 0.26 | 0.253 | 0.247 | 0.306 | 0.256
NCI-H2228 |  |  |  |  |  | 0.927 | 0.514 | 0.553 | 0.645 | 0.436 | 0.597 | 0.513 | 0.522 | 0.562 | 0.493 | 0.357 | 0.519 | 0.494 | 0.497 | 0.42
NCI-H2342 | 0.543 | 0.425 | 0.477 | 0.619 | 0.58 | 0.447 | 0.497 | 0.394 | 0.357 | 0.372 | 0.358 | 0.288 | 0.312 | 0.314 | 0.315 |  |  |  |  | 
SK-LU-1 |  |  |  |  |  | 0.517 | 0.483 | 0.387 | 0.425 | 0.356 | 0.213 | 0.231 | 0.189 | 0.199 | 0.173 | 0.657 | 0.699 | 0.587 | 0.667 | 0.694
SK-MES-1 |  |  |  |  |  | 0.843 | 0.748 | 0.646 | 0.621 | 0.537 | 0.446 | 0.47 | 0.307 | 0.305 | 0.373 | 0.386 | 0.322 | 0.329 | 0.357 | 0.392
SW 900 | 0.765 | 0.559 | 0.582 | 0.585 | 0.58 | 0.814 | 0.968 | 0.874 | 0.818 | 0.823 | 0.695 | 0.494 | 0.622 | 0.508 | 0.548 |  |  |  |  | 
SW 1573 |  |  |  |  |  | 0.579 | 0.552 | 0.477 | 0.493 | 0.234 | 0.709 | 0.659 | 0.515 | 0.479 | 0.524 | 0.568 | 0.485 | 0.528 | 0.486 | 0.559
